Laboratory results published in patent US9714951B2, “Pharmaceutical compositions containing peptides derived from human BPLP protein” (INSTITUT PASTEUR, priority 2004, dated 2017).
Entries after “also recorded” stand apart in the source; their conditions may differ. One block for each molecule: values may come before it. Ends that are not written are not given here.

What was measured:
[1] = target: T1, rat NEP ecto-endopeptidase activity (renal tissue) (Rattus norvegicus, UniProt P07861); test: breakdown of substance P by rat renal NEP ecto-endopeptidase activity; assay type: biochemical
T1 construct: rat NEP ecto-endopeptidase activity (renal tissue); from tissue; host or cells: rat kidney (renal tissue)
T1 sequence (P07861 1-750): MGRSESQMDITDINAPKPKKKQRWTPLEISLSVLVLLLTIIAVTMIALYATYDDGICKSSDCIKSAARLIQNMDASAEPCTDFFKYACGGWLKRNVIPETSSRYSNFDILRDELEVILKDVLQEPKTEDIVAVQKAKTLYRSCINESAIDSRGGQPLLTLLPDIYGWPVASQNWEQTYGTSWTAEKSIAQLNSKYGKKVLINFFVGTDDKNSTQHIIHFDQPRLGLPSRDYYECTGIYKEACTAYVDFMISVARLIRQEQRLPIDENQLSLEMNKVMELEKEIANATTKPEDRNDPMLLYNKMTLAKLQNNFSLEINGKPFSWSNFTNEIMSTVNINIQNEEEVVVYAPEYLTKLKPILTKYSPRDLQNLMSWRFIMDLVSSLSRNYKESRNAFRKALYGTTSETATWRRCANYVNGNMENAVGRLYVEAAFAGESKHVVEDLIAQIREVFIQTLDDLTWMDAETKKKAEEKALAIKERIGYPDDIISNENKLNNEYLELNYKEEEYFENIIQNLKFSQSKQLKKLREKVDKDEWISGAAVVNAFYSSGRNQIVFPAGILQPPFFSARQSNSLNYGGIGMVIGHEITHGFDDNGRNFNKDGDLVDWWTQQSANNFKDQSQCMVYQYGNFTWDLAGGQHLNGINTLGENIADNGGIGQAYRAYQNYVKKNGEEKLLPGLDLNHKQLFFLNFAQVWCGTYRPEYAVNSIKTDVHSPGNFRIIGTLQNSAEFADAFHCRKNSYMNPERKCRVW
Description: Briefly, for membrane preparations, the cells were homogenised at 4° C. in 10 volumes (vol./wt.) of 50 mM Tris/HCl buffered at pH 7.1. A first centrifugation at 1000×g and 5° C. for 5 min allows to remove the cellular debris and the nuclei in the pellet. A second centrifugation at 100 000×g and 5° C. for 30 min concentrates the membrane fraction in the pellet, which will be superficially washed three times in cold Tris/HCl buffer, resuspended in fresh buffer, aliquoted and stored at −80° C. while waiting to be used as enzyme source.
Hydrolysis of substrates was measured by monitoring the metabolism rate in conditions of initial velocity measurement in the presence and absence of specific inhibitors. These were added to the preincubation medium. The standard reaction mixture consisted of cell membranes in a final volume of 200 μl Tris-HCl 50 mM pH 6.5-7.2. The substrate was added after preincubation for 10 min and the digestion carried out for 20 min at 25° C. in a constantly shaken water bath. The reaction was terminated by cooling to 4° C. and adding HCl (0.3N final concentration). The reaction tubes were then centrifuged (4700×g for 15 min at 4° C.) and the remaining intact substrate and its metabolites measured.
The intact tritiated substrate was eluted with 75-100% methanol-0.1% TFA (4 ml). • RP-HPLC coupled to a spectrophotometer was used to analyse the hydrolysis of Met-enkephalin, (C-18 LUNA column, AIT). […] Their identities and relative quantities (peak height) were checked by monitoring the column outflow at 264 nm (L3000, Merck). • The disappearance of the initial Met-enkephalin substrate was also quantified by radioimmunoassay (RIA). […] The radioactivity of each fraction was determined by liquid scintillation spectrometry.

[2] = target: T2, spinal and renal NEP (Rattus norvegicus, UniProt P07861); settings: membrane-bound NEP; read-out: IC50 of inhibition of the breakdown of substance P; cited from earlier work
T2 construct: host or cells: spinal cord and kidney tissue
T2 sequence (P07861 1-750): T1 sequence (P07861 1-750)

[3] = system: formalin-induced pain; settings: iv; cited from earlier work
[4] = target: T3, human NEP (human ecto-endopeptidase activity, LNCaP cell line) (Homo sapiens, UniProt P08473); test: breakdown of substrate (substance P, McaBK2) by LNCaP human cell membranes; assay type: biochemical; settings: for effect on substance P hydrolysis by cell surface ectopeptidases: bestatin 25 μM, captopril 10 μM
T3 construct: in the experimental model of static incubation of human LNCaP cell membranes; endogenous in cells; host or cells: LNCaP (human prostate adenocarcinoma) membrane preparation, NEP induced by DHT

[5] = target: T4, soluble purified renal NEP (Oryctolagus cuniculus, UniProt P08049); settings: DGNPA substrate, read-out: IC50 of inhibition of NEP activity; cited from earlier work
T4 construct: host or cells: kidney (purified, soluble)
T4 sequence (P08049 1-750): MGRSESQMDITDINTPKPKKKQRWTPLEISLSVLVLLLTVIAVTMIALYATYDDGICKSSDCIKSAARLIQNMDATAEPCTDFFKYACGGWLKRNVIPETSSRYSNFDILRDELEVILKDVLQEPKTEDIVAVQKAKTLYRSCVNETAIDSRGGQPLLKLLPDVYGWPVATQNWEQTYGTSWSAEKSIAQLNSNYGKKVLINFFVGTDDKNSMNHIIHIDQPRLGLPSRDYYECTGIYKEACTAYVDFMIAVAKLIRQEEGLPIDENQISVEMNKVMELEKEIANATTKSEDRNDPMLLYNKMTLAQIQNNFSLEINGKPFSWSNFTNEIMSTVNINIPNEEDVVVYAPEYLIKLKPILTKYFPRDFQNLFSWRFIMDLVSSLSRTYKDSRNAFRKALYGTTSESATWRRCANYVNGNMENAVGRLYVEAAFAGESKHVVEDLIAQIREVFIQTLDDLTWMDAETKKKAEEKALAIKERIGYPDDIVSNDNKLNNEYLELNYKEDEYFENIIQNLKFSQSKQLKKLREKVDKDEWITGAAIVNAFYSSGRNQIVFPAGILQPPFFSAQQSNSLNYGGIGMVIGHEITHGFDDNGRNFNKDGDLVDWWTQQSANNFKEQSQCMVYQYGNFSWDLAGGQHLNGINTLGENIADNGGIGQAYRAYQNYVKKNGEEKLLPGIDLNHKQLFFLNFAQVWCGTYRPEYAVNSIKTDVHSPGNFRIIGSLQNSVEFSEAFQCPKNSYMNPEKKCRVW

[6] = system: formalin-induced pain; test: formalin test, behavioral rat model of acute pain; assay type: in vivo; settings: for time spent in paw licking, early phase: first 20 min after formalin, vehicle 144±17 s
From the text: […]. […] […].

[7] = system: human cell surface endopeptidases; test: metabolism of YQRFSR by human cell membranes containing NEP (RP-HPLC); assay type: in vitro ADME; settings: 175 μM
From the text: FIG. 8 is a RP-HPLC chromatographic analysis of the YQRFSR peptide (SEQ ID NO: 4).
The inventors used the tritiated 3H-YQRFSR peptide (SEQ ID NO: 4) to establish the pharmacokinetic and pharmacodynamic parameters, of this human functional peptidomimetic of rat sialorphin in vivo in adult male rat (biodistribution-bioavailability-clearance) as well as to define its metabolism mechanism and turnover in vivo and in vitro, (FIG. 8).

[8] = target: T5, soluble recombinant human DPP IV (Homo sapiens, UniProt P27487); test: endoproteolysis of substance P by soluble recombinant hDPPIV; assay type: biochemical; settings: 25 or 50 μM peptide
T5 construct: (without the N-terminal cytosol and transmembrane segment)
T5 sequence (P27487 29-766 limits assumed): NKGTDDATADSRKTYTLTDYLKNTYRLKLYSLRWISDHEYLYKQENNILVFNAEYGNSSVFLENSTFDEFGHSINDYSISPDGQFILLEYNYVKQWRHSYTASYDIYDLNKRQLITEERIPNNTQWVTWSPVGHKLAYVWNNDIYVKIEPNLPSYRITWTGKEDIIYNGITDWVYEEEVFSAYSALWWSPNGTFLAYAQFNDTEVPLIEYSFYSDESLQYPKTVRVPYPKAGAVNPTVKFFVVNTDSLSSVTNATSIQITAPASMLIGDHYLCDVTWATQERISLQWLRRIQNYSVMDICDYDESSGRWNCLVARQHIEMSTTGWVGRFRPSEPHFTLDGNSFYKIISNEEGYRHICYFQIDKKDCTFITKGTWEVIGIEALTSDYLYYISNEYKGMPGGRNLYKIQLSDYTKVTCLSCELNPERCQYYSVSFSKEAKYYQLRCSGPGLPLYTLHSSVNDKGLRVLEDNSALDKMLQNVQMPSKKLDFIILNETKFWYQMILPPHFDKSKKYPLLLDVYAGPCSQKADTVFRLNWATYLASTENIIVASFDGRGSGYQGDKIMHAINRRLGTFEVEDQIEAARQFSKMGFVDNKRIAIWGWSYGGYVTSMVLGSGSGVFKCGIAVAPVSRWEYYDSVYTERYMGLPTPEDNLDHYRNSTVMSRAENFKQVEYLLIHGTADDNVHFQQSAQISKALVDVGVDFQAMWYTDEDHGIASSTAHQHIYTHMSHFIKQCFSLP

T3 sequence (P08473 whole entry): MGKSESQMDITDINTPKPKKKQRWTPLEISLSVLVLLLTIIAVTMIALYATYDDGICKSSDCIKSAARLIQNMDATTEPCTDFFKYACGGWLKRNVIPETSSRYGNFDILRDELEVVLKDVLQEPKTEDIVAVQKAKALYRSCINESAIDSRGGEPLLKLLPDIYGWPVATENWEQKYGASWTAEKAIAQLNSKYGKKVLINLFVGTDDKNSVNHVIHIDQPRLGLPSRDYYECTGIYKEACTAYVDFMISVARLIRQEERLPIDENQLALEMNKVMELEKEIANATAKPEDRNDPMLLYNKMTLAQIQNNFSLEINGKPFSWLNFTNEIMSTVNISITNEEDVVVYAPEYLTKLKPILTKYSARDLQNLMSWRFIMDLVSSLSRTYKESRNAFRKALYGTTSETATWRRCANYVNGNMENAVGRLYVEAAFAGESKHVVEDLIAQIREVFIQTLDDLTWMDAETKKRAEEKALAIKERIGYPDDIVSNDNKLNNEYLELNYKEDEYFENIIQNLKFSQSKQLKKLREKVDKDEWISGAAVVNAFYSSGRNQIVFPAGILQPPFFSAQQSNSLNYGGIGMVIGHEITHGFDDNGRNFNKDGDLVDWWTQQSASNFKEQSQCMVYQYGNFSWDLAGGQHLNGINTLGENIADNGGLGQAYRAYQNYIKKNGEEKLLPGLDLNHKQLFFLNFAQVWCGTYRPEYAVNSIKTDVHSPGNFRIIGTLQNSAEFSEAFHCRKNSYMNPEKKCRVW

Molecule: QHNPR
inhibitory potency towards ectoendopeptidase from rat tissues [1]: 400 to 4000 nM | IC50 [2]: 400 to 1000 nM | effective doses in formalin-induced pain model [3]: 0.1 to 0.2 mg/kg | inhibitory potency against membrane-anchored human NEP (LNCaP) relative to rodent NEP (rat, rabbit), fold lower ([4]; human LNCaP vs rodent NEP): about 10 fold | inhibitory potency towards ectoendopeptidase from human cells [4]: 4000 to 40000 nM | IC50 [5]: 600 nM

Molecule: N=C(N)NCCC[C@H](NC(=O)[C@H](CO)NC(=O)[C@H](Cc1ccccc1)NC(=O)[C@H](CCCNC(=N)N)NC(=O)[C@H](CCC(N)=O)NC(=O)[C@@H](N)Cc1ccc(O)cc1)C(=O)O [YQRFSR]
time spent in paw licking, early phase ([6]; 0.5 mg/kg systemic): 97 ± 14 s | time spent in paw licking, early phase ([6]; 1 mg/kg systemic): 84 ± 13 s | time spent in paw licking, late phase ([6]; 1 mg/kg, 40 to 60 min after formalin, vehicle 63±13 s): 9 ± 3 s | analgesia in the presence of an opioid receptor antagonist ([6]; with nalaxone): totally reversed | IC50 [1]: 38000 nM | inhibitory potency towards ectoendopeptidase from rat tissues [1]: 5000 to 75000 nM | metabolism by human cell membranes containing NEP ([7]; in vitro): not metabolized | recovered as intact peptide ([7]; with human cell membranes containing NEP, 94% in absence of membranes): 93% | inhibitory potency towards ectoendopeptidase from human cells [4]: 5000 to 50000 nM | inhibition of substance P endoproteolysis by human cell membranes ([4]; peptide 175 μM): 70%

Molecule: QRFSR [QRFSR]
effect on breakdown of SP by recombinant hDPPIV [8]: no effect; also recorded: not prevented

Molecule: CSCC[C@H](N)CSSCC(Cc1ccccc1)C(=O)N[C@@H](Cc1ccccc1)C(=O)OCc1ccccc1 (stereo partly shown) [RB101]
effective doses in formalin-induced pain model [3]: 2.5 to 5 mg/kg

Molecule: QHNP (listed as Rattus rattus)
inhibitory potency towards ectoendopeptidase from rat tissues [1]: ≧50 μM

Molecule: QRGPR (listed as Homo sapiens)
effect on substance P endoproteolysis induced by LNCaP human cell membranes ([4]; 20-90 μM): no effect | inhibitory potency towards ectoendopeptidase from human cells [4]: ≧90 μM

Molecule: O=C(O)CNC(=O)C(CS)Cc1ccccc1 (stereo not shown) [thiorphan]
inhibition at 0.5 µM ([4]; read-out: maximum inhibitory potency on LNCaP membrane activity): 62%

Second part, the molecule after the results:

inhibitory potency towards ectoendopeptidase from human cells [4]: ≧90 μM
Molecule: QRGPRGP (listed as Homo sapiens)

effect on substance P hydrolysis by cell surface ectopeptidases [4]: did not inhibit
Molecule: CC(C)C[C@H](NC(=O)[C@@H](O)[C@H](N)Cc1ccccc1)C(=O)O [bestatin]

effect on substance P hydrolysis by cell surface ectopeptidases [4]: did not inhibit
Molecule: C[C@H](CS)C(=O)N1CCC[C@H]1C(=O)O [captopril]
